What was measured:
Scirpus juncoides [1] = test: Herbicidal effect test in submerged condition by treatment during weed-growth stage (1); format: in vivo; details: 0.64 g/a, treated at 1st to 2nd leaf stage, 3 weeks after treatment
Outline: (§1)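 Paddy-soil pots flooded to 4 cm water depth were sown and grown in a greenhouse at 25 to 30° C until weeds reached 1st to 2nd leaf stage. A wettable powder diluted in water to a predetermined formulation amount was applied to the water surface. Herbicidal effect was scored 3 weeks after treatment against set criteria.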

Monochoria vaginalis [2] = test: as above; format: in vivo; details: 0.64 g/a, treated at 1st to 2nd leaf stage, 3 weeks after treatment
Outline: as §1

Echinochloa crus-galli [3] = test: as above; format: in vivo; details: 0.64 g/a, treated at 1st to 2nd leaf stage, 3 weeks after treatment
Outline: as §1

[4] = test system: rice transplanted at a depth of 0 cm; test: Herbicidal effect test in submerged condition by treatment before weed-generation (2); format: in vivo, Oryza sativa; details: 0.3 g/a; submerged paddy soil pot, seedlings fixed to paddy surface with roots exposed; 3 weeks after treatment
Experimental: (§2) Herbicidal Effect Test in Submerged Condition by Treatment Before Weed-Generation (2)
(§3) Paddy surface soil was placed in a plastic pot of 1/10000 are, water was poured therein and mixed. After seeds of Scirpus juncoides were sown, paddy surface soil was added by 2 cm, and submerged with water, and then seeds of Echinochloa crus-galli, Scirpus juncoides, Monochoria vaginalis, Rotala indica and Lindernia pyxidaria were sown together. In addition, rice seedlings at 2.5th leaf stage were transplanted, and fixed to the paddy surface in a state where the roots were exposed on the other side. On the day when the seeds were sown, the wettable powder of the present invention prepared according to Formulation Example 1 was diluted with water so as to give a predetermined formulation amount, and the surface of the water was treated with the diluted wettable powder. The plants were grown by putting the pot in a green house at 25 to 30° C. The herbicidal effect for each plant was investigated 3 weeks after treatment with the herbicide according to the criteria indicated in Test Example 1.

Scirpus juncoides [5] = test: Herbicidal effect test in submerged condition by treatment before weed-generation (1); format: in vivo; details: 0.64 g/a, water surface treated on day of sowing, 3 weeks after treatment
Outline: (§4)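 Alluvial soil flooded to 4 cm water depth; Echinochloa crus-galli, Scirpus juncoides and Monochoria vaginalis seeds sown, rice transplanted at 2.5-leaf stage. Wettable powder diluted in water applied to water surface on sowing day; greenhouse 25–30° C. Effect scored 0–5 by herbicidal rate after 3 weeks.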

Monochoria vaginalis [6] = test: as above; format: in vivo; details: 0.64 g/a, water surface treated on day of sowing, 3 weeks after treatment
Outline: as §4

Echinochloa crus-galli [7] = test: as above; format: in vivo; details: 0.64 g/a, water surface treated on day of sowing, 3 weeks after treatment
Outline: as §4

Scirpus juncoides [8] = test: Herbicidal effect test in submerged condition by treatment before weed-generation (2); format: in vivo; details: 0.3 g/a; submerged paddy soil pot, water surface treated on day of sowing; 3 weeks after treatment
Experimental: as §2, §3

[9] = test system: transplanted rice (Oryza sativa); test: as above; format: in vivo; details: 0.3 g/a; submerged paddy soil pot, rice seedlings at 2.5th leaf stage transplanted; 3 weeks after treatment
Experimental: as §2, §3

Monochoria vaginalis [10] = test: as above; format: in vivo; details: 0.3 g/a; submerged paddy soil pot, water surface treated on day of sowing; 3 weeks after treatment
Experimental: as §2, §3

Lindernia pyxidaria = test: as above; format: in vivo; details: 0.3 g/a; submerged paddy soil pot, water surface treated on day of sowing; 3 weeks after treatment
Experimental: as §2, §3

Rotala indica = test: as above; format: in vivo; details: 0.3 g/a; submerged paddy soil pot, water surface treated on day of sowing; 3 weeks after treatment
Experimental: as §2, §3

Echinochloa crus-galli [11] = test: as above; format: in vivo; details: 0.3 g/a; submerged paddy soil pot, water surface treated on day of sowing; 3 weeks after treatment
Experimental: as §2, §3

[12] = test system: transplanted rice (Oryza sativa); test: Crop injury test on rice in water leakage condition; format: in vivo; details: 0.15 g/a; water leakage 2 cm/day x 3 days; treated on third day after transplantation; 3 weeks after treatment
Experimental: Crop Injury Test on Rice in Water Leakage Condition A mixed soil of alluvial soil and diluvial soil was placed in a plastic pot perforated at the bottom of 1/10000 are, water was poured therein and mixed, and then rice seedlings at 2.5th leaf stage were transplanted. Water leakage treatment was carried out by placing the pot in a plastic vat, and controlling the amount of water in the vat kept at a condition of 2 cm/day×3 days. The pot was put in a green house at 25 to 30° C., on third day after transplantation, the wettable powder of the present invention prepared according to Formulation Example 1 was diluted with water so as to give a predetermined formulation amount, and the surface of the water was treated with the diluted wettable powder. The crop injury on rice was investigated 3 weeks after treatment with the herbicide according to the criteria indicated in Test Example 1.

Row | SMILES | herbicidal effect, B: Scirpus juncoides (Scirpus juncoides [1]) | herbicidal effect, C: Monochoria vaginalis (Monochoria vaginalis [2]) | herbicidal effect, A: Echinochloa crus-galli (Echinochloa crus-galli [3]) | herbicidal effect, g: rice transplanted at a depth of 0 cm [4] | herbicidal effect, B: Scirpus juncoides (Scirpus juncoides [5]) | herbicidal effect, C: Monochoria vaginalis (Monochoria vaginalis [6]) | herbicidal effect, A: Echinochloa crus-galli (Echinochloa crus-galli [7]) | herbicidal effect, B: Scirpus juncoides (Scirpus juncoides [8]) | herbicidal effect, a: transplanted rice (Oryza sativa) [9] | herbicidal effect, C: Monochoria vaginalis (Monochoria vaginalis [10]) | herbicidal effect, O: Lindernia pyxidaria (Lindernia pyxidaria) | herbicidal effect, N: Rotala indica (Rotala indica) | herbicidal effect, A: Echinochloa crus-galli (Echinochloa crus-galli [11]) | crop injury on rice, a: transplanted rice (Oryza sativa) [12]
1 | COc1cc(OC)nc(NC(=O)NS(=O)(=O)c2c(C3=NOCCO3)c(C)nn2C)n1 [Comparative Compound 2] | 5 (Herbicidal rate 90% or more (almost complete death)) | 5 (Herbicidal rate 90% or more (almost complete death)) | 5 (Herbicidal rate 90% or more (almost complete death)) | 4 (Herbicidal rate 70% or more and less than 90%) | 5 (Herbicidal rate 90% or more (almost complete death)) | 5 (Herbicidal rate 90% or more (almost complete death)) | 5 (Herbicidal rate 90% or more (almost complete death)) | 5 (Herbicidal rate 90% or more (almost complete death)) | 4 (Herbicidal rate 70% or more and less than 90%) | 5 (Herbicidal rate 90% or more (almost complete death)) | 5 (Herbicidal rate 90% or more (almost complete death)) | 5 (Herbicidal rate 90% or more (almost complete death)) | 5 (Herbicidal rate 90% or more (almost complete death)) | 5 (Herbicidal rate 90% or more (almost complete death))
2 | COc1cc(OC)nc(NC(=O)NS(=O)(=O)c2c(C3=NOCCO3)c(Cl)nn2C)n1 [Comparative Compound 1] | 5 (Herbicidal rate 90% or more (almost complete death)) | 5 (Herbicidal rate 90% or more (almost complete death)) | 5 (Herbicidal rate 90% or more (almost complete death)) | 3 (Herbicidal rate 40% or more and less than 70%) | 5 (Herbicidal rate 90% or more (almost complete death)) | 5 (Herbicidal rate 90% or more (almost complete death)) | 5 (Herbicidal rate 90% or more (almost complete death)) | 5 (Herbicidal rate 90% or more (almost complete death)) | 0 (Herbicidal rate 5% or less (little effect)) | 5 (Herbicidal rate 90% or more (almost complete death)) | 5 (Herbicidal rate 90% or more (almost complete death)) | 5 (Herbicidal rate 90% or more (almost complete death)) | 5 (Herbicidal rate 90% or more (almost complete death)) | 3 (Herbicidal rate 40% or more and less than 70%)

Source: patent US7709636B2, “Pyrazole sulfonylurea compound and herbicide” (Nissan Chemical Industries, Ltd., priority 2004, dated 2010)
